Tests used:
Assay type in all cases: in vivo
[1] = tested on: Uncinula necator; test: Uncinula necator / grape / preventive (action against powdery mildew on grape); details: Erysiphe necator, 168 h, spray, grape seedlings cv. Gutedel, assessed 7 days after inoculation, read-out: inhibit fungal infestation
Procedure: Uncinula necator/Grape/Preventive (Action Against Powdery Mildew on Grape) 5 weeks old grape seedlings cv. Gutedel are treated with the formulated test compound in a spray chamber. One day after application grape plants are inoculated by shaking plants infected with grape powdery mildew above the test plants. After an incubation period of 7 days at 24° C./22° C. and 70% r. h. under a light regime of 14/10 h (light/dark) the disease incidence is assessed.

[2] = tested on: Alternaria solani; test: Alternaria solani / tomato / preventive (action against Alternaria on tomato); details: 96 h, spray, tomato plants cv. Roter Gnom, assessed 4 days after inoculation, read-out: inhibit fungal infestation
Procedure: Alternaria solani/Tomato/Preventive (Action Against Alternaria on Tomato) 4 weeks old tomato plants cv. Roter Gnom are treated with the formulated test compound in a spray chamber. Two days after application tomato plants are inoculated by spraying a spore suspension on the test plants. After an incubation period of 4 days at 22° C./18° C. and 95% r. h. in a greenhouse the disease incidence is assessed.

[3] = tested on: Septoria tritici; test: Septoria tritici / wheat / preventive (action against Septoria leaf spot on wheat); details: Zymoseptoria tritici, spray, wheat plants cv. Riband, assessed 16-18 days after inoculation, read-out: inhibits fungal infestation
Procedure: Septoria tritici/Wheat/Preventive (Action Against Septoria Leaf Spot on Wheat) 2 weeks old wheat plants cv. Riband are treated with the formulated test compound in a spray chamber. One day after application wheat plants are inoculated by spraying a spore suspension (10^6 conidia/ml) on the test plants. After an incubation period of 1 day at 22° C./21° C. and 95% r. h. plants are kept at 22° C./21° C. and 70% r.h. in a greenhouse. The disease incidence is assessed 16-18 days after inoculation.

[4] = tested on: Puccinia recondita; test: Puccinia recondita / wheat / preventive (action against brown rust on wheat); details: 264 h, spray, wheat plants cv. Arina, assessed 11 days after inoculation, read-out: inhibit fungal infestation
Procedure: Puccinia recondita/Wheat/Preventive (Action Against Brown Rust on Wheat) 1 week old wheat plants cv. Arina are treated with the formulated test compound in a spray chamber. One day after application wheat plants are inoculated by spraying a spore suspension ([…] uredospores/ml) on the test plants. After an incubation period of 1 day at 20° C. and 95% r. h. plants are kept for 10 days 20° C./18° C. (day/night) and 60% r.h. in a greenhouse. The disease incidence is assessed 11 days after inoculation.

[5] = tested on: Botrytis cinerea; test: Botrytis cinerea / tomato / preventive (action against Botrytis on tomato); details: 72 h, spray, tomato plants cv. Roter Gnom, assessed 3 days after inoculation, read-out: inhibit fungal infestation
Procedure: Botrytis cinerea/Tomato/Preventive (Action Against Botrytis on Tomato) 4 weeks old tomato plants cv. Roter Gnom are treated with the formulated test compound in a spray chamber. Two days after application tomato plants are inoculated by spraying a spore suspension on the test plants. After an incubation period of 3 days at 20° C. and 95% r. h. in a greenhouse the disease incidence is assessed.

Measured: inhibition at 200 ppm

Cc1nc(Cl)n(-c2ncc(Cl)cc2Cl)c1-c1ccc(Br)cc1 [I.s.035, 2-[5-(4-Bromo-phenyl)-2-chloro-4-methyl-imidazol-1-yl]-3,5-dichloro-pyridine]
not listed: [5]
≥ 80%: all other assays above

Cc1nc(Cl)n(-c2ncc(Cl)cc2Cl)c1-c1ccc(Cl)nc1 [I.s.210, 3,5-Dichloro-2-[2-chloro-5-(6-chloro-pyridin-3-yl)-4-methyl-imidazol-1-yl]-pyridine]
≥ 80%: [1] | [2] | [3]

Clc1cnc(-n2c(Cl)nc(Cl)c2-c2ccc(Br)cc2)c(Cl)c1 [I.s.034, 2-[5-(4-Bromo-phenyl)-2,4-dichloro-imidazol-1-yl]-3,5-dichloro-pyridine]
not listed: [4]
≥ 80%: all other assays above

Source: patent US20110224252A1, “NOVEL IMIDAZOLE DERIVATIVES” (SYNGENTA CROP PROTECTION, INC., priority 2007, published 2011)
